Experimental data taken from ChEMBL document CHEMBL5236595, “JDQ443, a Structurally Novel, Pyrazole-Based, Covalent Inhibitor of KRASG12C for the Treatment of Solid Tumors” (J Med Chem, 2022).
≈ marks a conversion by molar mass, not a printed value.

Assays:
[1] = tested on: GTPase KRas (Homo sapiens), P01116 [G12C]; experiment: Displacement of [acrylamide-2,3-3H2]-N-(3-fluoro-4-(2-methyl-3-(5-methyl-1H- indazole-4-yl)-1H-pyrrolo[ 2,3-b]pyridin-1-yl)-phenyl from KRAS G12C mutant (unknown origin) assessed as ratio of Kinact/Ki by competitive scintillation proximity assay
[2] = Cysteine reactivity in pH 7.4 phosphate buffer assessed as compound half life at 2 uM in presence of GSH
GTPase KRas = GTPase KRas (Homo sapiens, UniProt P01116, G12C); experiment: Inhibition of KRAS G12C mutant in human NCI-H358 cells assessed as reduction in ERK phosphorylation incubated for 6 hrs by MSD assay; format: cell-based
[3] = Apparent permeability across apical to basolateral side in MDCK-MDR1 cells at 10 uM after 2 hrs by LC-MS/MS analysis; format: ADME, cell-based, Canis lupus familiaris; conditions: dog
[4] = Aqueous solubility of compound in pH 6.8; format: physicochemical; conditions: aqueous medium
[5] = Lipophilicity, logD of compound at pH 7.4; format: physicochemical; conditions: buffer
[6] = AUC in human MIA PaCa-2 cells xenografted mouse at 30 mg/kg, po; format: ADME, organism-based; set-up: dose 30 mg/kg, route po; conditions: in vivo
[7] = Cmax in human MIA PaCa-2 cells xenografted mouse at 30 mg/kg, po; format: ADME, organism-based; set-up: dose 30 mg/kg, route po; conditions: in vivo
[8] = tested on: GTPase KRas (Homo sapiens), P01116 [G12C]; experiment: In vivo target occupancy at KRAS G12C mutant in human MIA PaCa-2 cells xenografted mouse assessed as decrease in free KRAS G12C level at 30 mg/kg, po after 6 hrs; format: functional, organism-based
[9] = tested on: GTPase KRas (Homo sapiens), P01116 [G12C]; experiment: In vivo target occupancy at KRAS G12C mutant in human MIA PaCa-2 cells xenografted mouse assessed as decrease in free KRAS G12C level at 30 mg/kg, po after 24 hrs; format: functional, organism-based
[10] = tested on: GTPase KRas (Homo sapiens), P01116 [G12C]; experiment: In vivo target occupancy at KRAS G12C mutant in human MIA PaCa-2 cells xenografted mouse assessed as decrease in […] expression at 30 mg/kg, po after 6 hrs; format: functional, organism-based
[11] = tested on: GTPase KRas (Homo sapiens), P01116 [G12C]; experiment: In vivo target occupancy at KRAS G12C mutant in human MIA PaCa-2 cells xenografted mouse assessed as decrease in […] expression at 30 mg/kg, po after 24 hrs; format: functional, organism-based

Row | SMILES | Ratio [1] [mM⁻¹ s⁻¹] | T1/2 [2] [min] | IC50 (GTPase KRas) [nM] | further results
1 | C=CC(=O)Nc1ccc(-n2nc(C)c(-c3c(C)ccc4[nH]ncc34)c2C)c(F)c1 | 0.5 | 30 |  | 
2 | C=CC(=O)Nc1ccc(-n2nc(C(C)C)c(-c3c(C)ccc4[nH]ncc34)c2C)c(F)c1 | 6 | 20 | 500 | 
3 | C=CC(=O)Nc1ccc(-n2nc(C)c(-c3c(C)ccc4[nH]ncc34)c2C)cc1 | 0.1 |  |  | 
4 | C=CC(=O)N1CC2(CC(n3nc(C(C)C)c(-c4c(C)ccc5[nH]ncc45)c3C)C2)C1 | 0.4 |  | 3900 | 
5 | C=CC(=O)N1CC2(CC(n3nc(-c4ccc5[nH]ncc5c4)c(-c4c(Cl)c(C)cc5[nH]ncc45)c3C)C2)C1 | 116 |  | 20 | Papp A→B at 2 h, 10 µM [3]: 0.6 ×10⁻⁶ cm/s; solubility [4]: 10 µM (≈ 5.12 µg/mL); logD [5]: 4.6
6 | C=CC(=O)N1CC2(CC(n3nc(C4CCCCC4)c(-c4c(Cl)ccc5[nH]ncc45)c3C)C2)C1 | 0.9 |  | 700 | 
7 | C=CC(=O)N1CC2(CC(n3nc(-c4cccnc4)c(-c4c(Cl)c(C)cc5[nH]ncc45)c3C)C2)C1 | 10 |  | 90 | 
8 | C=CC(=O)Nc1ccc(-c2nn(C(C)C)c(-c3c(C)ccc4[nH]ncc34)c2C)c(F)c1 | 0.2 | 57 |  | 
9 | C=CC(=O)N1CC2(CC(n3nc(-c4ccccn4)c(-c4c(Cl)c(C)cc5[nH]ncc45)c3C)C2)C1 | 7 |  |  | 
10 | C=CC(=O)N1CC2(CC(n3nc(C4CCCCC4)c(-c4c(C)ccc5[nH]ncc45)c3C)C2)C1 | 0.3 |  |  | 
11 | C=CC(=O)Nc1ccc(-n2nc(C(C)C)c(-c3c(C)ccc4[nH]ncc34)c2C)c(C)c1 | 1.7 | 107 | 1500 | 
12 | C=CC(=O)N1CC2(CC(n3nc(-c4ccc5nn(CCOC)cc5c4)c(-c4c(Cl)c(C)cc5[nH]ncc45)c3C)C2)C1 | 225 |  | 4 | Papp A→B at 2 h, 10 µM [3]: 5.4 ×10⁻⁶ cm/s; solubility [4]: 30 µM (≈ 17.1 µg/mL); logD [5]: 4.2; AUC [6]: 7.3 µM·h; Cmax [7]: 4.3 µM; Occ [8]: 37%; Occ [9]: 78%; Occ [10]: 45%; Occ [11]: 59%
